Laboratory results reported in patent publication US20230092769A1 (SHANGHAI BENEMAE PHARMACEUTICAL CORPORATION, priority 2020, published 2023).
“And” between values parts separate entries of the source, which are not always exact repeats. Equal entries are not always repeated.

How the values were obtained:
Type in all cases: in vivo
[1] = tested on: STZ-induced diabetic C57BL/6 mice; experiment: Fasting blood glucose on Day 28 after 6 hours fasting, STZ-induced diabetic C57BL/6 mice; settings: Day 28, 6 hours fasting, IGlar 5 U/kg multiple dosing
Method: After one-week acclimation, the mice were fed with high fat diet with 60 kcal % fat (D12492, Research Diets) for 3 weeks before STZ injection. Diabetic model was induced with 5 consecutive days of multiple low-dose STZ injection (50 mg/kg, intraperitoneally; i.p.). During modeling period, the mice were fasted for 4 hours before STZ treatment each day. The STZ solution (5 mg/ml) was freshly prepared in 0.1 M sodium citrate buffer (pH 4.5) before use and injected within 10 minutes of preparation. Seven days later, the mice with non-fasted blood glucose between 16.7 mM and 27.7 mM were selected and randomized into different groups by blood glucose level and body weight. At 9 am (T=0 minute) of Day 1, the mice were subcutaneously administrated with vehicle, insulin glargine, beinaglutide, or a mixture of insulin glargine and beinaglutide, which were mixed immediately before injection (Table 3). After first injection, tail blood glucose levels were measured at various intervals after injection, at 15 minutes, 30 minutes, 60 minutes, 120 minutes, 180 minutes, and 240 minutes, respectively. […] Body weight was measured twice per week. […] The blood glucose was monitored at 0 minute (pre-glucose loading), 15 minutes, 30 minutes, 60 minutes and 120 minutes after glucose loading.
On Day 28, the fasting blood glucose was measured after 6 hours fasting.

[2] = tested on: STZ-induced diabetic C57BL/6 mice; experiment: Blood glucose after single dosing in STZ-induced diabetic C57BL/6 mice (Example 2); settings: for blood glucose 15 min / blood glucose 30 min / blood glucose 60 min / blood glucose 120 min / blood glucose 180 min / blood glucose 240 min / AUC(0-120 min) of blood glucose / blood glucose 0 min: single s.c. dose; for blood glucose 0 min: pre-dose
Method: Animals: Male C57BL/6 mice (n=70) were purchased from Shanghai Jihui Laboratory Animal Care Co., Ltd. Upon arrival, the mice were housed in an animal facility at Shanghai University of Medicine & Health Sciences, under constant temperature (20-24° C.) and humidity (40-70%). Housing was provided at 12:12-hour light-dark cycle.
Active agents: Insulin glargine was obtained from Sanofi and stored at a temperature of 2-8° C. Beinaglutide having the sequence of […](SEQ ID NO: 1) was obtained from Benemae (beinaglutide injection, 2 mg/mL) and stored at 2-8° C.
(§1) After one-week acclimation, the mice were fed with high fat diet with 60 kcal % fat (D12492, Research Diets) for 3 weeks before STZ injection. Diabetic model was induced with 5 consecutive days of multiple low-dose STZ injection (50 mg/kg, intraperitoneally; i.p.). During modeling period, the mice were fasted for 4 hours before STZ treatment each day. The STZ solution (5 mg/ml) was freshly prepared in 0.1 M sodium citrate buffer (pH 4.5) before use and injected within 10 minutes of preparation. Seven days later, the mice with non-fasted blood glucose between 16.7 mM and 27.7 mM were selected and randomized into different groups by blood glucose level and body weight. At 9 am (T=0 minute) of Day 1, the mice were subcutaneously administrated with vehicle, insulin glargine, beinaglutide, or a mixture of insulin glargine and beinaglutide, which were mixed immediately before injection (Table 3). After first injection, tail blood glucose levels were measured at various intervals after injection, at 15 minutes, 30 minutes, 60 minutes, 120 minutes, 180 minutes, and 240 minutes, respectively. Subsequently, the mice of four groups (No. 1, No. 2, No. 4, and No. 6) continued to receive multiple dosing for 4 weeks. Body weight was measured twice per week. On day 28, after blood glucose measurement, the mice were fasted for 6 hours from 9 am, followed by an oral glucose tolerance test (glucose solution: 1 g/kg, 10 ml/kg). The blood glucose was monitored at 0 minute (pre-glucose loading), 15 minutes, 30 minutes, 60 minutes and 120 minutes after glucose loading.

[3] = Body weight change during 4-week multiple dosing in STZ-induced diabetic C57BL/6 mice; settings: for body weight change Day 0 / body weight change Day 4 / body weight change Day 7 / body weight change Day 8 / body weight change Day 10 / body weight change Day 12 / body weight change Day 14 / body weight change Day 16 / body weight change Day 18 / body weight change Day 20 / body weight change Day 22 / body weight change Day 24 / body weight change Day 26 / body weight change Day 28: IGlar 5 U/kg s.c., 1st week bid, 2nd to 4th week tid; for body weight change Day 0: baseline
Method: as §1

[4] = tested on: STZ-induced diabetic C57BL/6 mice; experiment: Oral glucose tolerance test (OGTT) on Day 28, STZ-induced diabetic C57BL/6 mice; set-up: OGTT blood glucose AUC: unit: mM·min
Method: The mice fasted for about 6 hours were orally administrated with glucose solution (1 g/kg). Blood glucose was measured at indicated time points.
as §1

[5] = Insulin glargine 5 U/kg, group MEAN, n=6
[6] = Insulin glargine 5 U/kg, group MEAN, n=6, listed as IGlar
[7] = Insulin glargine 5 U/kg, individual animal
[8] = Insulin glargine 10 U/kg, group MEAN, n=6
[9] = Insulin glargine 10 U/kg, group MEAN, n=6, listed as IGlar
[10] = Insulin glargine 10 U/kg, individual animal

insulin glargine
fasting blood glucose, Mean ([1]; group mean): 14.0 ± 2.43 mM and 14.0 mM
fasting blood glucose ([1]; individual animal): 16.1 mM and 9.4 mM and 7.6 mM and 15.9 mM and 20.9 mM
blood glucose 15 min [2, 5]: 25.35 mM
blood glucose 30 min [2, 5]: 16.95 mM
blood glucose 60 min [2, 5]: 6.07 mM
blood glucose 120 min [2, 5]: 7.02 mM
blood glucose 180 min [2, 5]: 11.80 mM
blood glucose 240 min [2, 5]: 18.83 mM
AUC(0-120 min) of blood glucose ([2]; Insulin glargine 5 U/kg, group MEAN, n=6, in mM·min (unit assumed)): 2864
AUC(0-120 min) of blood glucose [2, 6]: significant reduction of blood glucose
blood glucose 60 min [2, 6]: 6.07 ± 0.43 mM
blood glucose 15 min [2, 7]: 23.4 mM and 25.7 mM and 26.6 mM and 24.1 mM and 26.3 mM and 26 mM
blood glucose 30 min [2, 7]: 19.7 mM and 8.7 mM and 17.9 mM and 16.6 mM and 21.2 mM and 17.6 mM
blood glucose 60 min [2, 7]: 6.4 mM and 6.2 mM and 5.9 mM (2×) and 5.4 mM and 6.6 mM
blood glucose 120 min [2, 7]: 5.6 mM and 7.5 mM and 12.2 mM and 4.4 mM and 7.8 mM and 4.6 mM
blood glucose 180 min [2, 7]: 10.8 mM and 14.1 mM and 17.2 mM and 8.9 mM and 11.5 mM and 8.3 mM
blood glucose 240 min [2, 7]: 18.8 mM and 23.2 mM and 23.5 mM and 16.7 mM and 17.7 mM and 13.1 mM
AUC(0-120 min) of blood glucose ([2]; Insulin glargine 5 U/kg, individual animal, in mM·min (unit assumed)): 2864 and 3072 and 3731 and 2489 and 3047 and 2409
blood glucose 0 min [2, 5]: 27.55 mM
blood glucose 0 min [2, 7]: 31.1 mM and 29.3 mM and 25.9 mM and 28.3 mM and 25.3 mM and 25.4 mM
blood glucose 15 min [2, 8]: 26.68 mM
blood glucose 30 min [2, 8]: 14.68 mM
blood glucose 60 min [2, 8]: 7.65 mM
blood glucose 120 min [2, 8]: 5.50 mM
blood glucose 180 min [2, 8]: 9.95 mM
blood glucose 240 min [2, 8]: 20.18 mM
AUC(0-120 min) of blood glucose ([2]; Insulin glargine 10 U/kg, group MEAN, n=6, in mM·min (unit assumed)): 3986
AUC(0-120 min) of blood glucose [2, 9]: significant reduction of blood glucose
blood glucose 120 min [2, 9]: 5.50 ± 2.74 mM
blood glucose 180 min [2, 9]: 9.95 ± 5.22 mM
blood glucose 15 min [2, 10]: 24.4 mM (2×) and 23.6 mM and 30.3 mM and 29 mM and 28.4 mM
blood glucose 30 min [2, 10]: 17.3 mM and 10.6 mM and 3.1 mM and 11.1 mM and 26.1 mM and 19.9 mM
blood glucose 60 min [2, 10]: 9.6 mM and 5 mM and 7 mM and 5.2 mM and 13.3 mM and 5.8 mM
blood glucose 120 min [2, 10]: 10.8 mM and 4.2 mM and 5.4 mM and 3 mM and 5.3 mM and 4.3 mM
blood glucose 180 min [2, 10]: 19.3 mM and 9.4 mM and 6.1 mM and 5.8 mM and 6.7 mM and 12.4 mM
blood glucose 240 min [2, 10]: 26.4 mM and 16.1 mM and 15.4 mM and 14.3 mM and 19.3 mM and 29.6 mM
AUC(0-120 min) of blood glucose ([2]; Insulin glargine 10 U/kg, individual animal, in mM·min (unit assumed)): 3986 and 2308 and 2209 and 1991 and 3146 and 3254
blood glucose 0 min [2, 8]: 27.77 mM
blood glucose 0 min [2, 10]: 26.7 mM and 25.5 mM and 29 mM and 24.6 mM and 30.2 mM and 30.6 mM
blood glucose after a single administration (in words) ([2]; STZ-induced hyperglycemic mice, single s.c. administration): significantly reduced blood glucose
body weight change Day 0 ([3]; group MEAN): 0.0 g
body weight change Day 0 ([3]; individual animal): 0.0 g
body weight change Day 4 ([3]; group MEAN): 0.0 g
body weight change Day 7 ([3]; group MEAN): 0.7 g
body weight change Day 8 ([3]; group MEAN): 0.7 g
body weight change Day 10 ([3]; group MEAN): 0.8 g
body weight change Day 12 ([3]; group MEAN): 0.7 g
body weight change Day 14 ([3]; group MEAN): 1.2 g
body weight change Day 16 ([3]; group MEAN): 1.3 g
body weight change Day 18 ([3]; group MEAN): 1.6 g
body weight change Day 20 ([3]; group MEAN): 1.7 g
body weight change Day 22 ([3]; group MEAN): 1.7 g
body weight change Day 24 ([3]; group MEAN): 1.8 g
body weight change Day 26 ([3]; group MEAN): 2.4 g
body weight change Day 28 ([3]; group MEAN): 2.4 ± 0.4 g and 2.4 g
body weight change Day 4 ([3]; individual animal): -0.2 g and 0.0 g and 0.6 g and -0.1 g and 0.3 g and -0.4 g
body weight change Day 7 ([3]; individual animal): 0.2 g and 0.7 g and 1.0 g (2×) and 0.8 g and 0.5 g
body weight change Day 8 ([3]; individual animal): 0.0 g and 1.1 g and 0.6 g and 0.7 g and 1.3 g and 0.4 g
body weight change Day 10 ([3]; individual animal): 0.1 g and 1.0 g (2×) and 0.7 g and 1.1 g and 0.8 g
body weight change Day 12 ([3]; individual animal): 0.2 g and 0.9 g and 0.4 g and 0.8 g and 1.3 g and 0.6 g
body weight change Day 14 ([3]; individual animal): 0.3 g and 1.3 g and 0.8 g (2×) and 2.0 g and 1.9 g
body weight change Day 16 ([3]; individual animal): 0.7 g and 1.3 g and 1.7 g (2×) and 1.0 g
body weight change Day 18 ([3]; individual animal): 0.9 g and 1.2 g and 2.4 g (2×) and 1.3 g
body weight change Day 20 ([3]; individual animal): 1.0 g (2×) and 1.9 g and 2.3 g and 2.5 g
body weight change Day 22 ([3]; individual animal): 1.2 g and 1.7 g and 2.1 g and 2.6 g and 1.0 g
body weight change Day 24 ([3]; individual animal): 1.3 g and 1.9 g and 2.3 g and 2.7 g and 0.6 g
body weight change Day 26 ([3]; individual animal): 1.5 g and 2.2 g and 3.3 g and 3.7 g and 1.2 g
body weight change Day 28 ([3]; individual animal): 1.7 g and 2.3 g and 2.9 g and 3.8 g and 1.4 g
weight gain on Day 28, IGlar alone vs combo (in words) ([3]; IGlar 5 U/kg vs IGlar 5 U/kg & Bei 0.05 mg/kg, 4-week treatment): induced weight gain significantly higher than the combinational therapy of beinaglutide and insulin glargine
blood glucose based on the AUC during OGTT (in words) ([4]; Day 28, glucose 1 g/kg oral, Bei 0.1 mg/kg, IGlar 5 U/kg, or IGlar 5 U/kg & Bei 0.05 mg/kg multiple dosing): significantly reduced blood glucose based on the AUC
OGTT blood glucose 0 min, MEAN ([4]; IGlar 5 U/kg, Day 28, group mean, 0 min): 13.98 mM
OGTT blood glucose AUC, MEAN ([4]; IGlar 5 U/kg, Day 28, group mean, 0-120 min): 2390.25
OGTT blood glucose 15 min, MEAN ([4]; IGlar 5 U/kg, Day 28, group mean, 15 min): 27.90 mM
OGTT blood glucose 30 min, MEAN ([4]; IGlar 5 U/kg, Day 28, group mean, 30 min): 24.60 mM
OGTT blood glucose 60 min, MEAN ([4]; IGlar 5 U/kg, Day 28, group mean, 60 min): 20.04 mM
OGTT blood glucose 120 min, MEAN ([4]; IGlar 5 U/kg, Day 28, group mean, 120 min): 13.72 mM
OGTT blood glucose 0 min ([4]; IGlar 5 U/kg, Day 28, individual animals, 0 min): 16.1 mM and 9.4 mM and 7.6 mM and 15.9 mM and 20.9 mM
OGTT blood glucose AUC ([4]; IGlar 5 U/kg, Day 28, individual animals, 0-120 min): 2820.0 and 2205.0 and 2178.8 and 2133.0 and 2614.5
OGTT blood glucose 15 min ([4]; IGlar 5 U/kg, Day 28, individual animals, 15 min): 33.3 mM and 25.4 mM and 24 mM and 25.9 mM and 30.9 mM
OGTT blood glucose 30 min ([4]; IGlar 5 U/kg, Day 28, individual animals, 30 min): 27.9 mM and 23.4 mM and 23.1 mM and 23.3 mM and 25.3 mM
OGTT blood glucose 60 min ([4]; IGlar 5 U/kg, Day 28, individual animals, 60 min): 23 mM and 18.6 mM and 19 mM and 16.4 mM and 23.2 mM
OGTT blood glucose 120 min ([4]; IGlar 5 U/kg, Day 28, individual animals, 120 min): 17.9 mM and 13 mM and 12.9 mM and 12.1 mM and 12.7 mM
